Experimental data published in US8551984B2, “Aminopyrimidines as SYK inhibitors” (Merck Sharp & Dohme Corp., priority 2009, dated 2013).
Like-named read-outs stand apart in the source and are kept apart here.

Target: recombinant human SYK (GST-hSYK fusion protein) (Homo sapiens, UniProt P43405)
[1] = read-out: rhSYK Activity, Table 54D
[2] = read-out: rhSYK Activity (IC50), recombinant human GST-SYK 5 pM, ATP 25 μM, biotinylated substrate peptide 250 nM, HTRF, 10-dose titration
[3] = read-out: rhSYK Activity, Table 54B
[4] = read-out: rhSYK Activity, Table 116A
[5] = read-out: rhSYK Activity, Table 33-A
[6] = read-out: rhSYK Activity, Table 33B

Source text: Homogeneous Time-Resolved Fluorescence (HTRF) Assay for the Recombinant Human SYK Enzyme:

With `Cc1cc(Nc2nccc(C(F)(F)F)n2)cc(-c2cnc(C3(O)CCCN(C(=O)c4n[nH]c(C(F)(F)F)n4)CC3)s2)c1` (single isomer, unassigned) [Example 54D-110] the IC50 [1] was less than 0.1 µM.
`Cc1cc(Nc2nccc(C(F)(F)F)n2)cc(-c2cnc(C3(O)CCCN(S(N)(=O)=O)CC3)s2)c1` (single isomer, unassigned) [Example 54D-117] showed an IC50 [1] of less than 0.1 µM.
With `Cc1cc(Nc2nccc(C(F)(F)F)n2)cc(-c2cnc(C3(O)CCCN(C(N)=O)CC3)s2)c1` (single isomer, unassigned) [Example 54D-120] the IC50 [1] was less than 0.1 µM.
`Cc1cc(Nc2nccc(C(F)(F)F)n2)cc(-c2cnc(C3(O)CCCN(C(=O)CO)CC3)s2)c1` (single isomer, unassigned) [Example 54D-123] was tested, and the IC50 [1] was less than 0.1 µM.
Work on `Cc1cc(Nc2nccc(C(F)(F)F)n2)cc(-c2cnc(C3(O)CCCN(C(=O)c4nc[nH]n4)CC3)s2)c1` (single isomer, unassigned) [Example 54D-125] yielded an IC50 [1] of less than 0.1 µM.
`Cc1cc(Nc2nccc(C(F)(F)F)n2)cc(-c2cnc(CNC(CO)C(C)O)s2)c1` (single isomer, unassigned) [Example 88A-44] was tested, and the IC50 [2] was less than 0.1 µM.
With `Cc1cc(Nc2nccc(C(C)O)n2)cc(-c2cnc(C3(O)CCC(C(=O)O)C(C)(C)C3)s2)c1` (single isomer, unassigned) [Example 100A-15] the IC50 [2] was less than 0.1 µM.
`Cc1cc(Nc2nccc(C(O)C3CC3)n2)cc(-c2cnc(C3(O)CCC(C(=O)O)C(C)(C)C3)s2)c1` (single isomer, unassigned) [Example 100A-19] gave an IC50 [2] of less than 0.1 µM.
`Cc1cc(Nc2nccc(C(F)C3CC3)n2)cc(-c2cnc(C3(O)CCC(C(=O)O)C(C)(C)C3)s2)c1` (single isomer, unassigned) [Example 100A-22] was tested, and the IC50 [2] was less than 0.1 µM.
In the case of `Cc1cc(Nc2nccc(C(C)(O)C3CC3)n2)cc(-c2cnc(C3(O)CCC(C(=O)O)C(C)(C)C3)s2)c1` (single isomer, unassigned) [Example 100A-26], the IC50 [2] is reported as less than 0.1 µM.
`Cc1cc(Nc2nccc(C(F)(F)F)n2)cc(-c2cnc(C3(O)CCC(O)C(C)(C)C3)s2)c1` (centres unmarked) [8A-7] was tested, and the IC50 (read-out: rhSYK Activity, Table 8A) was less than 0.1 µM.
`Cc1cc(Nc2nccc(C(F)(F)F)n2)cc(-c2cnc(C3(O)CCN(C(N)=O)C3)s2)c1` (centres unmarked) [54B-3] was tested, and the IC50 [3] was less than 0.1 µM.
For `Cc1cc(Nc2nccc(C(F)(F)F)n2)cc(-c2cnc(C3(O)CCN(C(N)=O)C3)s2)c1` (centres unmarked) [54B-7], the IC50 [3] was less than 0.1 µM.
`Cc1cc(Nc2nccc(C)n2)cc(-c2cnc(C3(O)CCN(C(N)=O)C3)s2)c1` (centres unmarked) [54B-14] showed an IC50 [3] of less than 0.1 µM.
In the case of `Cc1cc(Nc2nccc(C)n2)cc(-c2cnc(C3(O)CCN(C(N)=O)C3)s2)c1` (centres unmarked) [54B-15], the IC50 [3] is reported as less than 0.1 µM.
In the case of `CC(C)(c1ncc(-c2cc(F)cc(Nc3nccc(C(F)(F)F)n3)c2)s1)S(N)(=O)=O` [74A-10], the IC50 (read-out: rhSYK Activity, Table 74A) is reported as 0.1 to 1 µM.
`Cc1cc(Nc2nccc(C(C)C)n2)cc(-c2cnc(C3(O)CCCNCC3)s2)c1` (centres unmarked) [113C-14] showed an IC50 (read-out: rhS YK Activity, Table 113C) of less than 0.1 µM.
`Cc1cc(Nc2nccc(C(F)F)n2)cc(-c2cnc(C3(O)CCC(C(=O)O)C(C)C3)s2)c1` (centres unmarked) [116A-19] showed an IC50 [4] of less than 0.1 µM.
Work on `Cc1cc(Nc2ncc(Cl)c(C)n2)cc(-c2cnc([C@]3(O)CC[C@@H](C(=O)O)C(C)(C)C3)s2)c1` [116A-26] yielded an IC50 [4] of less than 0.1 µM.
`Cc1cc(Nc2nccc(C(F)(F)F)n2)cc(-c2cnc(C3(O)CCC(C(=O)O)CC3)s2)c1` (centres unmarked) [Example 33A-6] was tested, and the IC50 [5] was less than 0.1 µM.
Work on `Cc1cc(Nc2nccc(C(F)(F)F)n2)cc(-c2cnc(C3(O)CCC(CCC(=O)O)CC3)s2)c1` (centres unmarked) [Example 33A-19] yielded an IC50 [5] of less than 0.1 µM.
`Cc1cc(Nc2nccc(C(F)(F)F)n2)cc(-c2cnc(C3(O)CCC(CCC(=O)O)CC3)s2)c1` (centres unmarked) [Example 33A-20] showed an IC50 [5] of less than 0.1 µM.
`Cc1cc(Nc2nccc(C)n2)cc(-c2cnc(C3(O)CCC(CC(=O)O)CC3)s2)c1` (centres unmarked) [Example 33A-33] gave an IC50 [5] of less than 0.1 µM.
For `COc1ccnc(Nc2cc(C)cc(-c3cnc(C4(O)CCC(C(=O)O)CC4)s3)c2)n1` (centres unmarked) [Example 33A-36], the IC50 [5] was less than 0.1 µM.
In the case of `COc1ccnc(Nc2cc(C)cc(-c3cnc(C4(O)CCC(C)(C(=O)O)CC4)s3)c2)n1` (centres unmarked) [Example 33A-37], the IC50 [5] is reported as less than 0.1 µM.
Work on `Cc1cc(Nc2ncc(F)c(C3CC3)n2)cc(-c2cnc(C3(O)CCC(C(=O)O)C(C)(C)C3)s2)c1` (centres unmarked) [Example 33A-41] yielded an IC50 [5] of less than 0.1 µM.
Work on `Cc1cc(Nc2nccc(C3CC3)n2)cc(-c2cnc(C3(O)CCC(C(=O)O)C(C)(C)C3)s2)c1` (centres unmarked) [Example 33A-42] yielded an IC50 [5] of less than 0.1 µM.
Compound `CC1(C)CC(O)(c2ncc(-c3cc(CO)cc(Nc4nccc(C(F)(F)F)n4)c3)s2)CCC1C(=O)O` (centres unmarked) [Example 33A-53] has an IC50 [5] of less than 0.1 µM.
In the case of `Cc1cc(Nc2nccc(C)n2)cc(-c2cnc(C3(O)CCC(C(=O)O)C(C)(C)C3)s2)c1` (centres unmarked) [Example 33A-68], the IC50 [5] is reported as less than 0.1 µM.
Work on `Cc1cc(Nc2nccc(C(F)(F)F)n2)cc(-c2cnc(C3(O)CCC(C(=O)O)C(C)(C)C3C)s2)c1` (centres unmarked) [Example 33A-76] yielded an IC50 [5] of less than 0.1 µM.
Work on `Cc1cc(Nc2nccc(C(F)(F)F)n2)cc(-c2cnc(C3(O)CCCC(C(=O)O)C(C)(C)C3)s2)c1` (centres unmarked) [Example 33B-8] yielded an IC50 [6] of less than 0.1 µM.
`Cc1cc(Nc2nccc(C(F)(F)F)n2)cc(-c2cnc(C3(O)CCCC(C(=O)O)C(C)(C)C3)s2)c1` (centres unmarked) [Example 33B-9] was tested, and the IC50 [6] was less than 0.1 µM.
